From US9227959B2, “Ethynyl derivatives” (Hoffmann-La Roche Inc., priority 2012, dated 2016) come the findings set out here.

For test [1], the target named is T1, human mGlu5a receptor (Homo sapiens (Human), UniProt P41594). The test is described as follows: MPEP binding assay. The conditions noted are these: [3H]MPEP 2 nM, 1 h at 4° C., EBNA cell membranes. The procedure:
For binding experiments, cDNA encoding human mGlu 5a receptor was transiently transfected into EBNA cells using a procedure described by Schlaeger and Christensen [Cytotechnology 15:1-13 (1998)]. Cell membrane homogenates were stored at −80° C. until the day of assay where upon they were thawed and resuspended and polytronised in 15 mM Tris-HCl, 120 mM NaCl, 100 mM KCl, 25 mM CaCl2, 25 mM MgCl2 binding buffer at pH 7.4 to a final assay concentration of 20 μg protein/well.
Saturation isotherms were determined by addition of twelve [^3H]MPEP concentrations (0.04-100 nM) to these membranes (in a total volume of 200 μl) for 1 h at 4° C. Competition experiments were performed with a fixed concentration of [^3H]MPEP (2 nM) and IC50 values of test compounds evaluated using 11 concentrations (0.3-10,000 nM). Incubations were performed for 1 h at 4° C.
At the end of the incubation, membranes were filtered onto unifilter (96-well white microplate with bonded GF/C filter preincubated 1 h in 0.1% PEI in wash buffer, Packard BioScience, Meriden, Conn.) with a Filtermate 96 harvester (Packard BioScience) and washed 3 times with cold 50 mM Tris-HCl, pH 7.4 buffer. Nonspecific binding was measured in the presence of 10 μM MPEP. The radioactivity on the filter was counted (3 min) on a Packard Top-count microplate scintillation counter with quenching correction after addition of 45 μl of microscint 40 (Canberra Packard S. A., Zürich, Switzerland) and shaking for 20 min.

Test [2] addresses T1, human mGlu5a receptor. The test is described as follows: Intracellular Ca2+ mobilization assay (mGlu5 PAM assay). Format: cell-based. The conditions noted are these: for EC50 (nM) mGlu5 PAM assay / mGlu5 PAM EC50 [nM]: HEK-293 cells with human mGlu5a, L-glutamate at EC20; for Activity profile: PAM = positive allosteric modulator, NAM = negative allosteric modulator; for Efficacy [%]: maximal response in % of maximal stimulatory effect of saturating L-glutamate. The procedure: A monoclonal HEK-293 cell line stably transfected with a cDNA encoding for the human mGlu5a receptor was generated; for the work with mGlu5 Positive Allosteric Modulators (PAMs), a cell line with low receptor expression levels and low constitutive receptor activity was selected to allow the differentiation of agonistic versus PAM activity. Cells were cultured according to standard protocols (Freshney, 2000) in Dulbecco's Modified Eagle Medium with high glucose supplemented with 1 mM glutamine, 10% (vol/vol) heat-inactivated bovine calf serum, Penicillin/Streptomycin, 50 μg/ml hygromycin and 15 μg/ml blasticidin (all cell culture reagents and antibiotics from Invitrogen, Basel, Switzerland).
About 24 hrs before an experiment, 5×10^4 cells/well were seeded in poly-D-lysine coated, black/clear-bottomed 96-well plates. The cells were loaded with 2.5 μM Fluo-4AM in loading buffer (1×HBSS, 20 mM HEPES) for 1 hr at 37° C. and washed five times with loading buffer. The cells were transferred into a Functional Drug Screening System 7000 (Hamamatsu, Paris, France), and 11 half logarithmic serial dilutions of test compound at 37° C. were added and the cells were incubated for 10-30 min. with on-line recording of fluorescence. Following this pre-incubation step, the agonist L-glutamate was added to the cells at a concentration corresponding to EC20 (typically around 80 μM) with on-line recording of fluorescence; in order to account for day-to-day variations in the responsiveness of cells, the EC20 of glutamate was determined immediately ahead of each experiment by recording of a full dose-response curve of glutamate.
Responses were measured as peak increase in fluorescence minus basal (i.e. fluorescence without addition of L-glutamate), normalized to the maximal stimulatory effect obtained with saturating concentrations of L-glutamate. Graphs were plotted with the % maximal stimulatory using XLfit, a curve fitting program that iteratively plots the data using Levenburg Marquardt algorithm. The single site competition analysis equation used was y=A+((B−A)/(1+((x/C)D))), where y is the % maximal stimulatory effect, A is the minimum y, B is the maximum y, C is the EC50, x is the log 10 of the concentration of the competing compound and D is the slope of the curve (the Hill Coefficient). From these curves the EC50 (concentration at which half maximal stimulation was achieved), the Hill coefficient as well as the maximal response in % of the maximal stimulatory effect obtained with saturating concentrations of L-glutamate were calculated.
A depression of the signal observed after addition of the EC20 concentration of L-glutamate was indicative of an inhibitory activity of the test compound.
In general terms: Calcium assays in cells follow changes in intracellular calcium, usually with a dye or a luminescent sensor.

T1 sequence (P41594 other isoform, or with tags, fused parts or gaps): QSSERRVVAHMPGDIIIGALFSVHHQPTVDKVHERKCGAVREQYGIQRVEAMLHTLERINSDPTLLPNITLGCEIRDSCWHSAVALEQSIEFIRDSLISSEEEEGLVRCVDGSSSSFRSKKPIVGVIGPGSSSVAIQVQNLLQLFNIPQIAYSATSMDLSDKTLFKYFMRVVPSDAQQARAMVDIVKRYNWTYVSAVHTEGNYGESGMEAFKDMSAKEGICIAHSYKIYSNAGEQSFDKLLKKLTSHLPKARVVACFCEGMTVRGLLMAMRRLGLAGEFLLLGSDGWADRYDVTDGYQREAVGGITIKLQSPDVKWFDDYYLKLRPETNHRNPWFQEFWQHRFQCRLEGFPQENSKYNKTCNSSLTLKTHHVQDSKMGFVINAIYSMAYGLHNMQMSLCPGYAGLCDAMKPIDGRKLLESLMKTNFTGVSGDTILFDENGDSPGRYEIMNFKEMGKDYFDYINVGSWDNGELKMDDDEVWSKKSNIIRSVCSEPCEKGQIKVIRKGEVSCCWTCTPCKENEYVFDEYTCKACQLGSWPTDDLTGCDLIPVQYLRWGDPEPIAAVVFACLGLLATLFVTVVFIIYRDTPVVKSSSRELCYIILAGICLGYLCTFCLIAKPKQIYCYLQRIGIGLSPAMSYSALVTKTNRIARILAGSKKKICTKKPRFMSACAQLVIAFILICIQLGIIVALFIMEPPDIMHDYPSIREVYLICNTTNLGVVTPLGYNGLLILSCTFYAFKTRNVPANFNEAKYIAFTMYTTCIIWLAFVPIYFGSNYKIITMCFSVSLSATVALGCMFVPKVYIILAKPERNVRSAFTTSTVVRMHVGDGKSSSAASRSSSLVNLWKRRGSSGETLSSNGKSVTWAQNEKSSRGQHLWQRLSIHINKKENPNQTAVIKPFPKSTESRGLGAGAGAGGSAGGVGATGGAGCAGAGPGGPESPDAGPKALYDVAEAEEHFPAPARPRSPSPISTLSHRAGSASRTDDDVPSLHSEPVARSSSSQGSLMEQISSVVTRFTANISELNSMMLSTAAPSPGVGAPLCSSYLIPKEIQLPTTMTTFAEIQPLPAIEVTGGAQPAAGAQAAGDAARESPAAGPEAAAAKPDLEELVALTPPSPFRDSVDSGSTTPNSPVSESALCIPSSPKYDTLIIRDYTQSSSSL

As usually defined, the Ki is a measure of affinity in units of concentration, obtained from inhibition or displacement. On to `CC1(C)COCCN1C(=O)c1ccc(C#Cc2cccc(F)c2)cn1` [Example 1, (3,3-Dimethyl-morpholin-4-yl)-[5-(3-fluoro-phenylethynyl)-pyridin-2-yl]-methanone], for which, at human mGlu5a receptor [1], the inhibition constant (Ki) was 72 nM. In addition, at human mGlu5a receptor [2], the “EC50 (nM) mGlu5 PAM assay” value is “inactive” and the Activity profile entry is “NAM”.

In the case of `O=C(c1ccc(C#Cc2cccc(Cl)c2)cn1)N1CCOCC1` [Example 2, [5-(3-Chloro-phenylethynyl)-pyridin-2-yl-morpholin-4-yl]-methanone], on human mGlu5a receptor [2], the “EC50 (nM) mGlu5 PAM assay” value is “inactive”.

Regarding `CC1(C)COCCN1C(=O)c1ccc(C#Cc2cccc(Cl)c2)cn1` [Example 3, (3,3-Dimethyl-morpholin-4-yl)-[5-(3-chloro-phenylethynyl)-pyridin-2-yl]-methanone], the Ki at human mGlu5a receptor [1] came out at 23 nM. In addition, at human mGlu5a receptor [2], the “EC50 (nM) mGlu5 PAM assay” value is “inactive” and the Activity profile result is “NAM”.

`CC1(C)COCCN1C(=O)c1ncc(C#Cc2cccc(Cl)c2)cn1` [Example 4, (3,3-Dimethyl-morpholin-4-yl)-[5-(3-chloro-phenylethynyl)-pyrimidin-2-yl]-methanone]: at human mGlu5a receptor [1], the Ki came out at 67 nM. Moreover, at human mGlu5a receptor [2], the “EC50 (nM) mGlu5 PAM assay” value was “inactive” and the Activity profile entry is “NAM”.

For `CC1(C)CN(C(=O)c2ccc(C#Cc3cccc(F)c3)cn2)CCO1` [Ref. 1 Ex. 35, reference compound], the Ki at human mGlu5a receptor [1] was 201 nM. Moreover, the Activity profile entry on human mGlu5a receptor [2] is reported as “PAM”.

Consider `CC1(C)CCCN(C(=O)c2ncc(C#Cc3ccccc3)cn2)C1` [Ref. 1 Ex. 46, reference compound], for which the Ki at human mGlu5a receptor [1] came to 315 nM. In addition, the Activity profile result on human mGlu5a receptor [2] is recorded as “PAM”.

Take `CC1(C)CN(C(=O)c2ccc(C#Cc3cccc(F)c3)cn2)CCO1` [drawing 3]: at human mGlu5a receptor [2], the “Efficacy [%]” value was 57%.

Take `CC1(C)CCCN(C(=O)c2ncc(C#Cc3ccccc3)cn2)C1` [drawing 4]: the “Efficacy [%]” value on human mGlu5a receptor [2] worked out at 59%.

As to `CC1(C)COCCN1C(=O)c1ccc(C#Cc2cccc(F)c2)cn1` [drawing 5], the “mGlu5 PAM EC50 [nM]” value on human mGlu5a receptor [2] is “inactive”.

In the case of `O=C(c1ccc(C#Cc2cccc(Cl)c2)cn1)N1CCOCC1` [drawing 6], the “mGlu5 PAM EC50 [nM]” value at human mGlu5a receptor [2] was “inactive”.

`CC1(C)COCCN1C(=O)c1ccc(C#Cc2cccc(Cl)c2)cn1` [drawing 7]: the “mGlu5 PAM EC50 [nM]” value at human mGlu5a receptor [2] was “inactive”.

For the molecule `CC1(C)COCCN1C(=O)c1ncc(C#Cc2cccc(Cl)c2)cn1` [drawing 8], on human mGlu5a receptor [2], the “mGlu5 PAM EC50 [nM]” value is “inactive”.
